According to patent US8093380B2, “Compounds with the bicyclo[4.2.1]nonane system for the treatment of Flaviviridae infections” (Pharmasset, Inc., priority 2002, dated 2012):
Where a name gives a salt, the structure may show the parent alone.

Columns and labels:
HCV replicon = HCV replicon system in Huh7 cells (real-time RT-PCR of replicon RNA); format: cell-based; conditions: for ΔCt HCV at 100 μM / EC50: Huh7 replicon cells; for ΔCt HCV at 100 μM: ΔCt of 3.3 = 1-log reduction in replicon production; for EC50: calculated from ΔCt values of dilution series
Procedure: The HCV replicon system in Huh7 cells.
Huh7 cells harboring the HCV replicon were cultivated in DMEM medium (high glucose, no pyruvate), supplemented with 10% fetal bovine serum, 1× non-essential amino acids, Pen-Strep-Glu (100 units/liter, 100 microgram/liter, and 2.92 mg/liter, respectively), and G418 (500 to 1000 microgram/milliliter). Antiviral screening assays were also done in the same medium without G418 as follows. To keep the cells in the logarithmic growth phase, cells were seeded in 96-well plates at low density (for example, 1000 cells per well). The test compound was then added immediately after seeding the cells, and they were incubated for 3 to 7 days at 37° C. in an incubator. The medium was then removed, and the cells were prepared for total RNA extraction (replicon RNA+host RNA). Replicon RNA was then amplified in a real-time RT-PCR (Q-RT-PCR) protocol, and quantified.
In such experiments, a way to express the antiviral effectiveness of a compound is to subtract the average threshold RT-PCR cycle of the negative control (Ctnegative) from the threshold RT-PCR cycle of the test compound (Cttestcompound). This value is called ΔCt (ΔCt=Cttestcompound−Ctnegative). A ΔCt value of 3.3 represents a 1-log reduction in replicon production.
The ΔCt values for each concentration allow the calculation of the 50% effective concentration (EC50).
Compounds were tested for inhibition of HCV RNA replication using the above assay.

human cell lines = assay: Toxicity in several human cell lines; format: cell-based
[1] = Toxicity in Swiss outbred mice, IP for 6 consecutive days; format: in vivo; conditions: up to 100 mg/kg
[2] = Oral and IV administration to rhesus monkeys; format: in vivo; conditions: 20 mg/kg
HCV [3] = assay: 14-day oral treatment of chronically HCV-infected chimpanzees, serum HCV viral load by real-time RT-PCR; format: in vivo
Procedure: Based on those toxicity data, a 14-day treatment (oral, QD at 5 mg/kg/day) of chronically HCV-infected chimpanzees was conducted. Viral RNA was extracted from the chronically infected chimpanzees serum samples in quadruplicate and the viral RNA pellets were dissolved in RNAse-free water. Subsequently, these RNA samples were amplified by real-time RT-PCR (Applied Biosystems, Foster City, Calif.) for the presence and quantity of the HCV nucleic acids. Primers and probes for HCV were designed using Primer Express (Applied Biosystems). Further details on the methodology will be published (Stuyver et al., 2002; manuscript submitted to Antimicrob. Agents Chemother.).
The results are expressed relative to the viral load in the pretreatment sample. Calculation of the viral load for each sample was based on 4 independent measurements of threshold RT-PCR cycles (Ct values). Mean±SD were calculated for each day's sample. The latter were used to express the observed viral load changes.
Two chimpanzees [Joseph (5.14 log10 IU/ml HCV) and Heppie (5.69 log10 IU/ml HCV)] were treated orally for 14 days with 5 mg/kg/day. The viral load changes that were observed are summarized below (FIG. 1): • 1. […] The viral load remained suppressed with a mean of 0.43 log10 IU/ml up to day 14.

[4] = Hematology and blood chemistry in treated chimpanzees; format: in vivo
Procedure: Hematology and blood chemistry report. The day 0 and day 14 samples were analyzed for hematological and blood chemistry parameters. Essentially, no changes in the baseline and after treatment samples were observed.

HCV [5] = conditions: ribavirin alone; cited from earlier work

Compound	ΔCt HCV at 100 μM (HCV replicon)	EC50 (HCV replicon; Hepatitis C virus, Huh-7)	other results
O=c1ccc2nnn3c2n1[C@@H]1O[C@H](C3)C(O)C1O (stereo partly drawn) [15 (Y = H, Z = CH), 9,5′-Cyclo-3-(β-D-ribofuranosyl)-1-deaza-8-azapurine-2-one]	4.48	20 µM	in vitro antiviral activity against HCV (HCV replicon; in words): demonstrated in vitro antiviral activity against HCV; toxicity in several human cell lines (human cell lines): practically no toxicity; toxicity [1]: no toxicity was apparent; death or significant weight loss ([1]; 28 day monitoring): None of the mice died or lost significant weight; untoward effects ([2]; IV administration): Neither oral administration nor IV administration to rhesus monkeys at 20 mg/kg caused any untoward effects; untoward effects ([2]; oral administration): Neither oral administration nor IV administration to rhesus monkeys at 20 mg/kg caused any untoward effects; reduction in viral load (HCV [3]; day 4, 5 mg/kg/day QD, in words): significant reduction; maximal drop in HCV viral load (HCV [3]; day 4, chimpanzee Heppie, oral 5 mg/kg/day QD): 0.8 log10 IU/ml; maximal drop in HCV viral load (HCV [3]; day 4, chimpanzee Joseph, oral 5 mg/kg/day QD): 0.5 log10 IU/ml; maximal drop in HCV viral load, mean for both animals (HCV [3]; day 4, mean of both chimpanzees, oral 5 mg/kg/day QD): 0.67 log10 IU/ml; viral load changes (HCV [3]; up to 24 hr after administration of the first dose, oral 5 mg/kg/day): No viral load changes were observed; viral load suppression, mean (HCV [3]; up to day 14, oral 5 mg/kg/day QD): 0.43 log10 IU/ml; changes in hematological and blood chemistry parameters ([4]; day 0 versus day 14; oral 5 mg/kg/day; Z=CH), 5 mg/kg/day): No change; hematological and blood chemistry parameters relative to normal range ([4]; throughout the study): remained in the normal range
O=c1ncc2nnn3c2n1[C@@H]1O[C@H](C3)C(O)C1O (stereo partly shown) [15 (Y = H, Z = N)]	3.6	< 10 µM	
O=c1[nH]c(=O)n2c3c1nnn3CC1OC2C(O)C1O [15 (Y = OH, Z = N), 9,5′Cyclo-3-(β-D-ribofuranosyl)-8-azaxanthine]	6.3		EC50 (HCV replicon): < 10 µM
O=c1[nH]c(=S)c2nnn3c2n1[C@@H]1O[C@H](C3)C(O)C1O (stereo partly shown) [15 (Y = SH, Z = N)]	3.61	< 6 µM	
O=c1c(Br)cc2nnn3c2n1[C@@H]1O[C@H](C3)C(O)C1O (stereo partly drawn) [71 (X = Br), 3,5′-Cyclo-6-bromo-4-(β-D-ribofuranosyl)-vic-triazolo[4,5-b]pyridin-5-one]	5.9	< 1 µM	
O=c1c(Cl)cc2nnn3c2n1[C@@H]1O[C@H](C3)C(O)C1O (stereo partly drawn) [71 (X = Cl), 3,5% Cyclo-6-chloro-4-(β-D-ribofuranosyl)-vic-triazolo[4,5-b]pyridin-5-one]	6.0	< 0.7 µM	
CNc1nc(=O)n2c3c1nnn3C[C@H]1O[C@@H]2C(O)C1O (stereo partly drawn) [72 (R = H, R′ = Me), 3,5′-Cyclo-7-methylamino-4-(β-D-ribofuranosyl)-vic-triazolo[4,5-b]pyridin-5-one]	6.6	< 1 µM	
Nc1cc(=O)n2c3c1nnn3C[C@H]1O[C@@H]2C(O)C1O (stereo partly drawn) [72 (R = R′ = H), 7-Amino-3,5′-cyclo-4-(β-D-ribofuranosyl)-vic-triazolo[4,5-b]pyridin-5-one]	5.7	4.5 µM	
CC1(C)OC2C(O1)[C@H]1Cn3nnc4c(=S)[nH]c(=O)n(c43)[C@@H]2O1 (stereo partly shown) [73 (Y = SH)]	4.1	25 µM	
C/N=c1/[nH]c(=O)n2c3c1nnn3C[C@H]1O[C@@H]2C(O)C1O (stereo partly drawn) [75 (R = Me, R′ = H), 9,5′-Cyclo-3-(β-D-ribofuranosyl)-6-methylamino-8-azaxanthine]	6.4	< 6 µM	
CO/N=c1/[nH]c(=O)n2c3c1nnn3C[C@H]1O[C@@H]2C(O)C1O (stereo partly drawn) [75 (R = OMe, R′ = H), 9,5′-Cyclo-3-(β-D-ribofuranosyl)-6-methoxylamino-8-azaxanthine]	6.5	< 5 µM	
Nc1nc(=O)n2c3c1nnn3C[C@H]1O[C@@H]2C(O)C1O (stereo partly drawn) [75 (R = R′ = H), 9,5′-Cyclo-3-(β-D-ribofuranosyl)-6-amino-8-azapurine-2-one hydrochloride]	5.3	0.7 µM	
CN(C)c1nc(=O)n2c3c1nnn3C[C@H]1O[C@@H]2C(O)C1O (stereo partly drawn) [75 (R = R′ = Me), 9,5′-Cyclo-3-(β-D-ribofuranosyl)-6-dimethylamino-8-azaxanthine]	2.4		
N#CCn1c(=O)c2nnn3c2n(c1=O)[C@@H]1O[C@H](C3)C(O)C1O (stereo partly drawn) [77 (R = CH2CN), 1-Cyanomethyl-9,5′-cyclo-3-(β-D-ribofuranosyl)-8-azaxanthine]	4.7	< 6 µM	
Cn1c(=O)c2nnn3c2n(c1=O)[C@@H]1O[C@H](C3)C(O)C1O (stereo partly drawn) [77 (R = CH3), 9,5′-Cyclo-1-methyl-3-(β-D-ribofuranosyl)-8-azaxanthine]	5.9	0.4 µM	
O=c1ccc2nnn3c2n1[C@@H]1O[C@H](C3)C2OC(=S)OC21 (stereo partly shown) [82 (Y = H, Z = CH)]	2.6		
O=c1[nH]c(=O)n2c3c1nnn3C[C@H]1O[C@@H]2C2OC(=S)OC21 (stereo partly drawn) [82 (Y = OH, Z = N), 9,5′-Cyclo-3-(2′,3′O-thiocarbonyl-β-D-ribofuranosyl)-8-azaxanthine]	4.7	12 µM	
O=c1ccc2nnn3c2n1[C@H]1CC(O)[C@@H](C3)O1 (stereo partly shown) [83 (Y = H, Z = CH)]	5.1	< 6 µM	
O=c1[nH]c(=O)n2c3c1nnn3C[C@H]1O[C@@H]2C(O)C1O (stereo partly drawn) [83 (Y = OH, Z = N), 9,5% Cyclo-3-(2′-deoxy-β-D-erythropentofuranosyl)-8-azaxanthine]	2.1	60 µM	
Cl.Nc1nc(=O)n2c3c1ncn3C[C@H]1O[C@@H]2C(O)C1O (stereo partly drawn) [Compound 27, 6-Amino-5′,9-cyclo-3-(β-D-ribofuranosyl)-2-oxo-purine HCl salt]	6.6	< 3 µM	
O=c1[nH]c(=O)n2c3c1ncn3C[C@H]1O[C@@H]2C(O)C1O (stereo partly drawn) [Compound 35, 5′,9-Cyclo-3-(β-D-ribofuranosyl)xanthine]	6.0	4 µM	
O=c1[nH]c(=O)n2c3c1nnn3C[C@H]1O[C@@H]2C(O)C1O (stereo partly shown) [Compound 65, 9,5′-Cyclo-carba-8-azaxanthosine]	2.4		
OC1C(O)[C@H]2Cn3nnc4ccc(=S)n(c43)[C@@H]1O2 (stereo partly drawn) [Compound 70, 3,5% Cyclo-4-(β-D-ribofuranosyl)-vic-triazolo[4,5-b]pyridin-5-thione]	7.0	1 µM	
NC(=O)c1ncn([C@@H]2O[C@H](CO)[C@@H](O)[C@H]2O)n1 [Ribavirin, 1-β-D-ribofuranosyl-1H-1,2,4-triazole-3-carboxamide]			patients in whom serum amino transferase levels are reduced to normal (HCV [5]): 40%
